From patent US20070059359A1, “Immediate-release and high-drug-load pharmaceutical formulations of non-micronised (4-chlorophenyl)[4-(4-pyridylmethyl)phthalazin-1-yl] and salts thereof” (priority 2005, published 2007)

Legend:
VEGFR kinases = conditions: not dependent on a specific ligand; cited from earlier work
[1] = Hazard classification, internal workspace limit; conditions: classified as being hazardous

Row | SMILES | inhibition of VEGFR kinases (VEGFR kinases) | internal workspace limit [1] [mg/m^3]
1 | Clc1ccc(Nc2nnc(Cc3ccncc3)c3ccccc23)cc1 [(4-chlorophenyl)[4-(4-pyridylmethyl)-phthalazin-1-yl]] | inhibitor of all three VEGFR kinases | –
2 | Clc1ccc(Nc2nnc(Cc3ccncc3)c3ccccc23)cc1 [pynasunate, (4-chlorophenyl)[4-(4-pyridylmethyl)-phthalazin-1-yl]ammonium hydrogen succinate] | – | 0.1
